Test results published in ChEMBL document CHEMBL1201862, “PubChem BioAssay data set” (2004).
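Values below derive from 48-hour exposures of cells grown in 96-well plates, with endpoints linearly interpolated between the two concentrations bracketing the appropriate inhibition level. Abbreviation: GI50, concentration required for 50% inhibition of growth.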 Calls of active or inactive are those of the source. Rule as the data show it: active = GI50 up to about 1.1 µM and inactive = higher.

Tests used:
Experiment in all cases: NCI-60 cell line screen, 48 h
[1] = tested on: A498
[2] = tested on: ACHN
[3] = tested on: CCRF-CEM
[4] = tested on: HCT-116
[5] = tested on: HOP-62
[6] = tested on: HOP-92
[7] = tested on: IGROV-1
[8] = tested on: KM12
[9] = tested on: M14
[10] = tested on: NCI-H23
[11] = tested on: OVCAR-8
[12] = tested on: RXF 393
[13] = tested on: SF-295
[14] = tested on: SK-MEL-28
[15] = tested on: SK-MEL-2
[16] = tested on: SNB-75
[17] = tested on: SW-620
[18] = tested on: TK-10
[19] = tested on: U-251
[20] = tested on: UACC-62

Measured: GI50

Cc1nc2n(c1/C=C1/C(=O)Nc3cccc(Cl)c31)CCS2
inactive: [1] 30 µM | [2] 31 µM | [3] 50.9 µM | [4] 42.2 µM | [5] 24 µM | [6] 20.7 µM | [7] 48.8 µM | [8] > 100 µM | [9] > 100 µM | [10] 22 µM | [11] 25.7 µM | [12] 20.7 µM | [13] 27.5 µM | [14] > 100 µM | [15] 17.1 µM | [16] 17.5 µM | [17] > 100 µM | [18] 37.7 µM | [19] 17 µM | [20] 33.6 µM

CCCCCCCC(=O)OCC1OC(n2cc(F)c(=O)[nH]c2=O)C(NC(=O)OCc2ccccc2)C(OC(=O)CCCCCCC)C1O (stereo not given)
inactive: [1] > 100 µM | [2] 39.2 µM | [3] 17.5 µM | [4] 30.1 µM | [5] 71.8 µM | [6] 23.2 µM | [7] > 100 µM | [8] 35.3 µM | [9] 25.4 µM | [10] 41.4 µM | [11] 34 µM | [12] 20.2 µM | [13] 57 µM | [14] 36.5 µM | [15] 21.6 µM | [16] 24.5 µM | [17] 35 µM | [18] 38 µM | [19] 22.9 µM | [20] 19.5 µM

COc1ccc(C2C3C(=O)C=CC(=O)C3[C@@H]2C)cc1OC (stereo not given in full)
inactive: [1] > 100 µM | [2] 47.6 µM | [3] > 10 µM | [4] 28.4 µM | [5] > 100 µM | [6] > 100 µM | [7] > 100 µM | [8] > 100 µM | [9] > 100 µM | [10] > 100 µM | [11] > 100 µM | [12] > 100 µM | [13] > 100 µM | [14] > 100 µM | [15] > 100 µM | [16] 22.1 µM | [17] 42.1 µM | [18] > 100 µM | [19] > 100 µM | [20] > 100 µM

COC(=O)c1cc2c(s1)C(=O)c1ccccc1-2
inactive: [1] > 100 µM | [2] > 100 µM | [3] > 100 µM | [4] > 100 µM | [5] > 100 µM | [6] > 100 µM | [7] > 100 µM | [8] > 100 µM | [9] > 100 µM | [10] > 100 µM | [11] > 100 µM | [12] > 100 µM | [13] > 100 µM | [14] > 100 µM | [15] > 100 µM | [16] > 100 µM | [17] > 100 µM | [18] > 100 µM | [19] > 100 µM | [20] > 100 µM
